By IC50 is commonly meant the concentration that inhibits the measured activity by half.

We go through 13 compounds from patent publication US20260297542A1, “HERBICIDE RESISTANT PLANTS” (SYNGENTA CROP PROTECTION AG, priority 2023, published 2026).

The target of assay [1] is T1, His-TEV-AtPP01 ΔcTP L479M (SEQ ID NO: 371) (Arabidopsis thaliana, UniProt P55826, L479M).
T1 construct: with cTPs removed; made in house; host or cells: E. coli BL21 (DE3), His GraviTrap, partially purified
T1 sequence (P55826 with tags, fused parts or gaps L479M): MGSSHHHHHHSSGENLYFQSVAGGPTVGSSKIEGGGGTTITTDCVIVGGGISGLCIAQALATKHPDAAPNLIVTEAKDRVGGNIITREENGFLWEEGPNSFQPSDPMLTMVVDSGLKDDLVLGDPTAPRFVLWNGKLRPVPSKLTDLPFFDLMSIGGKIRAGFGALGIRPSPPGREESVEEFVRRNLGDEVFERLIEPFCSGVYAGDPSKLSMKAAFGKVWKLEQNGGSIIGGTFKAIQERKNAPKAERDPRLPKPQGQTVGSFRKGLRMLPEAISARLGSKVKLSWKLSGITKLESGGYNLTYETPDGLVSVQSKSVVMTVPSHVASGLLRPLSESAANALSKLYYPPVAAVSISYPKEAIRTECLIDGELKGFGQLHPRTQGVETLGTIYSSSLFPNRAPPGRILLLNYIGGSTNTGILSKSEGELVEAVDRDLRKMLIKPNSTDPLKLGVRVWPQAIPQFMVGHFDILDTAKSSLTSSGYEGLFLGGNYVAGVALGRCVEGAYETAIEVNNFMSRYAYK
Description: PPO fluorescence IC50 assay, partially purified enzyme. Format: biochemical. The text has this:
(§1) A pET24 plasmid containing a DNA sequence encoding variants of AtPPO1 derived from Arabidopsis thaliana with cTPs removed and both a 6×His tag and TEV protease cleavage tag added at the N-terminus, codon-optimised for expression in E. coli, and under control of a T7 promoter, was synthesised by Twist Bioscience. The following variants were synthesised: WT AtPPO1 (SEQ ID NO: 370), AtPPO1 L479M (SEQ ID NO: 371), AtPPO1 L479N (SEQ ID NO: 372), AtPPO1 S305L Y426V (SEQ ID NO: 374) and AtPPO1 S305L Y426V L479M (SEQ ID NO: 373). This plasmid was expressed in E. coli BL21 (DE3) with 50 μg/mL kanamycin selection. 10 mL of overnight cultures grown at 37° C. were used to inoculate 1 L AIM (AIM-Terrific Broth Base including Trace elements, Formedium) in 2 L shake flasks. Cultures were grown at 37° C., 200 rpm for 3 hours and then overnight at 26° C. Cells were harvested centrifugation. 5-15 g of cell pellet was lysed in and resuspended in ratio of 1:1.5 in lysis buffer (20 mM Tris pH8, 500 mM sodium chloride, 10% glycerol, 1× complete Protease EDTA-free Inhibitor Tablet (Roche), 10 mM imidazole). The resuspension was sonicated at 75% using 10 cycles of 30 seconds, 40 seconds off. After sonication Triton X-100 was added to the lysates at a final concentration of 0.5%. The lysates were centrifuged at 20,000 rpm for 25 min at 4° C. Cleared lysates were loaded on His GraviTrap (Cytiva) columns, washed with 20 mL of lysis buffer and eluted in elution buffer (20 mM Tris pH8, 500 mM sodium chloride, 10% glycerol, 200 mM imidazole, 0.03% (v/v) Triton X-100). The eluate was desalted on a PD10 column and 2.5-3.2 mL was collected. Protein concentration was measured and calculated using the absorbance at 280 nm. Extracts were diluted 1 in 4 and 10 uL was analysed by SDS PAGE.
(§2) Partially purified Protoporphyrinogen Oxidase enzymes were assayed for activity using fluorescence adapted from the method of Shepherd & Dailey (Anal Biochem. 2005 344(1) 115-121). The assay was performed in black 384 well plates with a clear bottom and the total volume of the reaction mixture was 91 ul. The final assay mixture contained 100 mM K2HPO4 pH7.2, 1 mM Na2EDTA, 5 mM DTT, 20% glycerol (v/v), 0.05% Tween 20 (v/v), 1.1% DMSO (v/v), 1 uM protoporphyrinogen IX and 1.5 nM enzyme. Compounds were dissolved in DMSO at 1 mM and a 4-fold serial dilution carried out to give 8 rates. 1 ul was added to the assay mixture. This gave final compound concentrations of 11, 2.7, 0.69, 0.17, 0.04, 0.01, 0.002, 0.0007 uM. Enzyme and inhibitor were preincubated for 5 minutes prior to starting the reaction with the addition of the substrate. […] IC50s were calculated using GraphPad Prism 7.05 nonlinear regression (Table 6). Each compound was tested in duplicate.

The target in assay [2] is T2, His-TEV-AtPP01 ΔcTP V030 (SEQ ID NO: 374) (Arabidopsis thaliana, UniProt P55826, S305L/Y426V).
T2 construct: with cTPs removed; made in house; host or cells: E. coli BL21 (DE3), His GraviTrap, partially purified
T2 sequence (P55826 with tags, fused parts or gaps S305L/Y426V): T1 sequence (P55826 with tags, fused parts or gaps L479M) with S290L, Y411V, M464L
The assay is described as above. Format: biochemical.
From the text: as §1, §2

The mark [3] stands for this setting: role: inhibitor, 1 uM protoporphyrinogen IX, <1.0 is below detection limit of assay.

Where a chain is given by its changes, count along the chain named. Read-outs that look alike come from different tables or passages of the source.

On to `C#CCN1C(=O)C(F)(F)Oc2cc(F)c(-n3c(=O)n(C)c(=S)n(C)c3=O)cc21` [Herbicide B, trifludimoxazin], for which the IC50 in assay [1] came out at 0.8 nM; in assay [2], 1.3 nM.

In the case of `CS(=O)(=O)NC(=O)c1cc(Oc2ccc(C(F)(F)F)cc2Cl)ccc1[N+](=O)[O-]` [Fomesafen, fomesafen], the results for the IC50 in assay [1] and in assay [2] were 1.2 nM and 0.7 nM, respectively.

Consider `CCOC(=O)C1(C)CC(c2cc(-n3c(=O)cc(C(F)(F)F)n(C)c3=O)c(F)cc2Cl)=NO1` (centres unmarked) [Herbicide C, 3-(2-chloro-4-fluoro-5-(3-methyl-2,6-dioxo-4-trifluoromethyl-3,6-dihydropyrimidin-1(2H)-yl)phenyl)-5-methyl-4,5-dihydroisoxazole-5-carboxylic acid ethyl ester], for which the IC50 amounted to 0.8 nM in assay [1] and 92 nM in assay [2].

For `COC(=O)C(C)ON=Cc1cc(-n2c(=O)cc(C(F)(F)F)n(C)c2=O)c(F)cc1Cl` (centres unmarked) [Flufenoximacil, flufenoximacil], the IC50 in assay [1] (setting [3]) was found to be 0.7 nM; in assay [2] (setting [3]) it was 717 nM.

With `CCOC(=O)COc1ncccc1Oc1cc(-n2c(=O)cc(C(F)(F)F)n(C)c2=O)c(F)cc1Cl` [Herbicide A, epyrifenacil], the IC50 in assay [1] stood at 0.8 nM; in assay [2], 323 nM.

Take `C=CCOC(=O)C(C)(C)OC(=O)c1cc(-n2c(=O)cc(C(F)(F)F)n(C)c2=O)ccc1Cl` [Butafenacil, butafenacil]: the IC50 in assay [1] stood at 0.7 nM; in assay [2] it was 11 nM.

As for `CCOC(=O)[C@]1(C)CC(c2cc(-n3c(=O)n(C)c(=S)n(C)c3=O)c(F)cc2Cl)=NO1` [Herbicide D, ethyl (5S)-3-[2-chloro-5-(3,5-dimethyl-2,6-dioxo-4-thioxo-1,3,5-triazinan-1-yl)-4-fluoro-phenyl]-5-methyl-4H-isoxazole-5-carboxylate], the IC50 amounted to 0.6 nM in assay [1] and 269 nM in assay [2].

On to `C#CCOc1cc(-n2nc3n(c2=O)CCCC3)c(Cl)cc1Cl` [Azafenadin], for which the IC50 turned out to be 0.7 nM in assay [1] and 117 nM in assay [2].

For the compound `C#CCN(C)c1c(C#N)cnn1-c1nn2c(c1Cl)CCCC2` [Pyraclonil], the IC50 in assay [1] is 2.3 nM; in assay [2] it was 4350 nM.

Consider `CC(C)N(C)S(=O)(=O)NC(=O)c1cc(-n2c(=O)cc(C(F)(F)F)n(C)c2=O)c(F)cc1Cl` [Herbicide E, saflufenacil], for which the results for the IC50 in assay [1] and in assay [2] were 2.4 nM and 547 nM, respectively.

On to `CCOC(=O)COc1cc(-c2nn(C)c(OC(F)F)c2Cl)c(F)cc1Cl` [Pyraflufen-ethyl, pyraflufen-ethyl], for which the IC50 came to 0.7 nM in assay [1] and 18.6 nM in assay [2].

Turning to `CC(C)Oc1cc(-n2nc(C(C)(C)C)oc2=O)c(Cl)cc1Cl` [Oxadiazaon], the IC50 is 11.2 nM in assay [1] and 4600 nM in assay [2].

On to `C#CCN1C(=O)COc2cc(F)c(N3C(=O)C4=C(CCCC4)C3=O)cc21` [Flumioxazin, flumioxazin], for which the IC50 is 1 nM in assay [1] and 47.2 nM in assay [2].
